How the values were obtained:
BCL6 BTB-POZ domain = settings: read-out: potency on BCL6 BTB-POZ domain; cited from earlier work
Permeability (Papp) = assay type: in vitro ADME; settings: not told
[1] = biological target: T1, human BCL6 BTB-POZ domain (nuclear receptor co-repressor 1 peptide) (Homo sapiens, UniProt P41182, C67R/C84N/C8Q); test: BCL6 TR-FRET assay, NCOR peptide displacement; assay type: binding; settings: NCOR1 peptide, read-out: pIC50 Human TR-FRET nuclear receptor co-repressor 1 (converted)
T1 construct: BCL6-Flag-6H-Avi (5-129) C8Q, C67R, C84N proteins; Flag (C); 6H (His6) (C); made in house; host or cells: E. coli
Experimental: Human, mouse and rat BCL6-Flag-6H-Avi (5-129) C8Q, C67R, C84N proteins were expressed in E. coli according to standard procedures and purified on Ni-NTA, followed by ion exchange on a Source 30Q column and size exclusion on an Superdex 200 column in a buffer of 20 mM Tris, 250 mM NaCl, 5 mM DTT, 5% glycerol, pH 8.5. All protein purities were estimated to be >90% by SDS-PAGE and the expected masses were confirmed by MS analysis. For TR-FRET assay protein was enzymatically biotinylated by treatment of protein at 100 µM with a 2 fold molar excess of biotin in the presence of 2 mM ATP and 1 µM BirA enzyme in a buffer of 50 mM bicine pH 8.3, 10 mM MgCl2 at 30 °C for 1 hour, followed by extensivedialysis against 50 mM Tris-Cl pH 8.0, 100 mM NaCl, 1 mM DTT using a 3.5 kDa cut-off membrane. Biotinylation was confirmed by MS analysis and concentration was determined by Bradford assay, after which protein was stored in aliquots at -80 °C.
Acceptor-labelled SMRT peptide H2N-[…](D2)-OH was dissolved in water by mass to give a 500 µM stock solution which was stored at -20 °C. Acceptor-labelled NCOR peptide H2N-[…](Alexa Fluor 647)-OH and acceptor-labelled BCOR peptide H2N-[…](Alexa Fluor 647)-OH were dissolved to a nominal concentration of 1 mM in DMSO, and stock solution concentration was determined by absorbance at 650 nm using an extinction coefficient of 270,000 M-1cm^-1. […]

SMILES	IC50 (BCL6 BTB-POZ domain) [nM]	Papp (Permeability (Papp)) [×10⁻⁶ cm/s]	IC50 [1] [nM]
CNC(=O)COc1cc2cc(Nc3nc(N4C[C@H](C)C[C@H](C)C4)ncc3Cl)ccc2n(C)c1=O [BI3802, reference compound]	< 3	–	–
Cc1ncccc1[C@H]1C[C@@H](c2cccc3nc(N)ccc23)Nc2c(F)cnn21 [GSK137, 5-((5S,7R)-3-Fluoro-7-(2-methylpyridin-3-yl)-4,5,6,7-tetrahydropyrazolo[1,5-a]pyrimidin-5-yl)quinolin-2-amine]	–	8.6	25.1

Reference: paper PMC8350397, “GSK137, a potent small-molecule BCL6 inhibitor with in vivo activity, suppresses antibody responses in mice” (The Journal of Biological Chemistry, 2021)
